{"source": "patent US11571411B2", "about": "“Use of a bisamide derivative of malonic acid for treating allergic and other diseases in humans and animals” (PHARMENTERPRISES ALLERGY LLC, priority 2018, dated 2023)", "origin": "cited, not measured here", "key": {"[1]": {"details": "in vivo; cited from earlier work"}, "[2]": {"molecular_target": "T1, H3 receptor (Homo sapiens, UniProt Q9Y5N1)", "T1 construct": "host or cells: human volunteers (nasal mucosa, in vivo)", "T1 sequence (Q9Y5N1 whole entry)": "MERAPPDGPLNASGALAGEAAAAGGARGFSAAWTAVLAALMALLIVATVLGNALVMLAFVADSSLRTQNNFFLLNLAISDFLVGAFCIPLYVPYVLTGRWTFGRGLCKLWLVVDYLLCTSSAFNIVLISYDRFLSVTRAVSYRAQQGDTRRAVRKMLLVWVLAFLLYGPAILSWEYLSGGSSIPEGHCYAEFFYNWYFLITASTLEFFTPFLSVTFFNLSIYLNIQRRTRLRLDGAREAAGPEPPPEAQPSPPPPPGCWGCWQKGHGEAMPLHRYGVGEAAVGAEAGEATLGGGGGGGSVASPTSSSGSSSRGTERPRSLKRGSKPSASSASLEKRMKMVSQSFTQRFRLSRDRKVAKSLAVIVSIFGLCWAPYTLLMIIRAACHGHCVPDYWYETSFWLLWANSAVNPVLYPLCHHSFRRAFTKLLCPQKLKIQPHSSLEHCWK", "details": "humans, topical administration; cited from earlier work"}}, "data": [{"smiles": "S=C(NC1CCCCC1)N1CCC(c2cnc[nH]2)CC1", "note": "[Thioperamide]", "values": [{"measurement": "crossing of the blood-brain barrier", "setting": "[1]", "result": "cross the blood-brain barrier"}, {"measurement": "effect on nasal blockage induced by R-alpha-methylhistamine", "setting": "[2]", "result": "reduced"}]}]}
